Reference: patent US8633177B2, “Nitroxyl (HNO) releasing compounds and uses thereof in treating diseases” (The United States of America, as represented by the …, priority 2010, dated 2014)

Key:
MDA-MB-231 cell line = assay: Comet assay for DNA damage, MDA-MB-231; format: cell-based, human; conditions: 50 μM IPA/NO-aspirin, 75 μM DEA/NO-aspirin
Protocol: The pathological aspect of high ROS is the ability to cause oxidative damage to DNA. To further investigate this possibility, the effect of NONO-aspirin was studied on DNA damage using a comet assay in the MDA-MB-231 cell line.
Cells were plated at a concentration of 50,000 cells per well in a 12 well plate and grown overnight. Cells were treated with 50 μM IPA/NO-aspirin and 75 μM DEA/NO-aspirin for 12 h and the assay was conducted using a comet assay kit (Cat No. 4250-050-K, Trevigen, Md.) as described in the manufacturer's instructions.

Prostaglandin E2 = assay: PGE2 production, prostaglandin E2 EIA kit; format: cell-based; conditions: 24 h
Protocol: Cells were plated at a concentration of 50,000 cells per well and grown overnight. Then 25, 50, and 100 μM of DMSO, IPA/NO-aspirin, and DEA/NO-aspirin were added to the corresponding well for 24 h and incubated at 37° C. The supernant was then analyzed for PGE2 activity using prostaglandin E2 EIA kit (Cayman Cat No. 514010).

[1] = NO release measured with NO specific electrode, 2% serum; format: physicochemical; conditions: 100 μM; for NO release: 2% serum; for [NO]pA: phosphate buffer pH 7.4, 2% serum
Protocol: The release of NO was evaluated using an NO specific electrode. The NO electrode was stabilized in phosphate buffer pH 7.4 containing 2% serum. Compounds 4 and 8 in DMSO were added and the NO signal was measured. The experiment was repeated in the presence of 1 mM sodium ferricyanide.
Since there is no direct method for detection of HNO, 1 mM ferricyanide solution was used, which converts HNO to NO that can then be detected using NO electrode. K3Fe(CN)6+HNO ? NO

[2] = tested on: reactive oxygen species (ROS); assay: ROS level with DCF; format: cell-based; conditions: 100 μM
Protocol: To investigate the role of ROS in apoptosis, the ROS level was studied in the presence of the compounds in a time dependent manner using 2′,7′-dichlorofluorescein (DCF) in all four cell lines. Cells were plated at a concentration of 30,000 cells per well and grown overnight. Cells were treated with 100 μM DCF (Sigma Aldrich) and incubated for 30 min at 37° C. The cells were then washed five times with PBS pH 7.4 and 100 μM of IPA/NO-aspirin, DEA/NO-aspirin, IPA/NO, DEA/NO and aspirin were added.

caspase-3 [3] = assay: Caspase-3 fluorescence assay, MCF-7; format: cell-based, human; conditions: 12 h
Protocol: (§1) The caspase-3 activity in the presence of IPA/NO-ASA and DEA/NO-ASA was measured using caspase-3 fluorescence assay kit (Cat No. 10009135, Cayman Chemical). Cells were plated at a concentration of 50,000 cells per well in a 96 well plate and grown overnight. Then the cells were treated with different concentrations of the compounds and controls for 12 h. After 12 h, the plate was centrifuged at 800 g and the media was removed by aspiration. 100 μL of lysis buffer was added to each well and the plate was incubated for […] at room temperature. 100 μL of a caspase-3 substrate solution was added to each well and incubated for 30 min after which the fluorescence was read at excitation of 485 nm and emission of 535 nm.

p53 = assay: Phosphorylation of p53 in MB-231 cells; format: cell-based, human; conditions: 50 μM IPA/NO-aspirin, 75 μM DEA/NO-aspirin
Protocol: MB-231 cells were plated at a concentration on 1E6 and grown for 24 h. Then the cells were serum starved overnight followed by treatment with 50 μM and 75 μM, respectively, of IPA/NO-aspirin and DEA/NO-aspirin for 3, 6, 12 h. The cells were harvested and lysed with lysis buffer (cell signaling). Cell lysate was centrifuged at 13,000 rpm for 20 min and the supernatant was transferred to fresh tube. Protein ([…]) of protein was loaded in each lane on a 15% tris-glycine gel and electrophoresis was completed at 120V.

caspase-3 [4] = assay: Caspase-3 fluorescence assay, MDA-MB-231; format: cell-based, human; conditions: 12 h
Protocol: as §1

[5] = biological target: T1, glyceraldehyde-3-phosphate dehydrogenase (GAPDH) (Homo sapiens, UniProt P04406); assay: GAPDH activity, MCF-7; format: cell-based; set-up: endogenous in cells; host or cells: MDA-MB-231, MDA-MB-468, MCF-7, MCF-10A; conditions: MCF-7, 100 μM
T1 sequence (P04406 whole entry): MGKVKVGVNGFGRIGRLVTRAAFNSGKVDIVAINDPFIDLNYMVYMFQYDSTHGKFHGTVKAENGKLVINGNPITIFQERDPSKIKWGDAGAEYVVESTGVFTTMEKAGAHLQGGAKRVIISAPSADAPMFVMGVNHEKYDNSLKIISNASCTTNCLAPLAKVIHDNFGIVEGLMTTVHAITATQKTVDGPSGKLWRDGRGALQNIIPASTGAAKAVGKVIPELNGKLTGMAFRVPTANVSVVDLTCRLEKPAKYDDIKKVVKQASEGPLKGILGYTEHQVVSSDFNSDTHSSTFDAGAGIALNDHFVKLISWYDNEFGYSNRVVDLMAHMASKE
Protocol: (§2) Cells were plated at a concentration of 30,000 cells per well and grown overnight. Cells were treated with 100 μM IPA/NO-aspirin and DEA/NO-aspirin for 1, 3, and 6 h after which 200 μL of KDalert lysis buffer was added to each well. The plate was incubated at 4° C. for 20 min to lyse the cells. 10 μL of cell lysate was transferred to a clean 96 well plate and 90 μL of KDalert mastermix was added to each well and the fluorescence was measured at excitation of 540 nm and emission of 570 nm.

[6] = biological target: T1, glyceraldehyde-3-phosphate dehydrogenase (GAPDH); assay: GAPDH activity, MDA-MB-468; format: cell-based; set-up: endogenous in cells; host or cells: MDA-MB-468; conditions: MDA-MB-468, 100 μM
Protocol: as §2

Structure (SMILES): CCN(CC)[N+]([O-])=NOCOC(=O)c1ccccc1OC(C)=O [DEA/NO-aspirin, O^2-(Acetylsalicyloyloxymethyl)-1-(N,N-Diethylamino)-diazen-1-ium-1,2-diolate]
- DNA damage (comet assay) (MDA-MB-231 cell line): comparable to the DMSO treated control
- Prostaglandin E2 (Prostaglandin E2; 25 μM): 21 pg/mL
- Prostaglandin E2 (Prostaglandin E2; 50 μM): 38 pg/mL
- Prostaglandin E2 (Prostaglandin E2; 100 μM): 36 pg/mL
- NO release [1]: readily released NO
- [NO]pA ([1]; +Ferricyanide 1 mM): 5000 pA
- [NO]pA ([1]; without ferricyanide): 4600 pA
- ROS level [2]: much lower
- Caspase-3 Activity (caspase-3 [3]; MCF-7, 25 μM): 0.30 U/mL
- Caspase-3 Activity (caspase-3 [3]; MCF-7, 50 μM): 0.35 U/mL
- Caspase-3 Activity (caspase-3 [3]; MCF-7, 100 μM): 0.27 U/mL
- time point of activation of p53 phosphorylation (p53): 1 h
- Caspase-3 Activity (caspase-3 [4]; MDA-MB-231, 25 μM): 0.25 U/mL
- Caspase-3 Activity (caspase-3 [4]; MDA-MB-231, 50 μM): 0.24 U/mL
- Caspase-3 Activity (caspase-3 [4]; MDA-MB-231, 100 μM): 0.31 U/mL
- GAPDH Activity ([5]; 1 h): 0.080 U/mL
- GAPDH Activity ([5]; 3 h): 0.110 U/mL
- GAPDH Activity ([5]; 6 h): 0.130 U/mL
- GAPDH Activity ([6]; 1 h): 0.060 U/mL
- GAPDH Activity ([6]; 3 h): 0.065 U/mL
- GAPDH Activity ([6]; 6 h): 0.050 U/mL

Structure (SMILES): CC(=O)Oc1ccccc1C(=O)OCON=[N+]([O-])NC(C)C [IPA/NO-aspirin, O^2-(Acetylsalicyloyloxymethyl)-1-(N-isopropylamino)-diazen-1-ium-1,2-diolate]
- DNA damage (comet assay) (MDA-MB-231 cell line): significant DNA damage
- Prostaglandin E2 (Prostaglandin E2; 25 μM): 17 pg/mL
- Prostaglandin E2 (Prostaglandin E2; 50 μM): 14 pg/mL
- Prostaglandin E2 (Prostaglandin E2; 100 μM): 13 pg/mL
- NO release [1]: significantly lower NO production
- [NO]pA ([1]; +Ferricyanide 1 mM): 2100 pA
- [NO]pA ([1]; without ferricyanide): 1000 pA
- ROS level [2]: significant increase in ROS level
- Caspase-3 Activity (caspase-3 [3]; MCF-7, 25 μM): 0.30 U/mL
- Caspase-3 Activity (caspase-3 [3]; MCF-7, 50 μM): 0.60 U/mL
- Caspase-3 Activity (caspase-3 [3]; MCF-7, 100 μM): 0.58 U/mL
- time point of activation of p53 phosphorylation (p53): 10 h
- Caspase-3 Activity (caspase-3 [4]; MDA-MB-231, 25 μM): 0.40 U/mL
- Caspase-3 Activity (caspase-3 [4]; MDA-MB-231, 50 μM): 0.48 U/mL
- Caspase-3 Activity (caspase-3 [4]; MDA-MB-231, 100 μM): 0.55 U/mL
- GAPDH Activity ([5]; 1 h): <0.010 U/mL
- GAPDH Activity ([5]; 3 h): <0.010 U/mL
- GAPDH Activity ([5]; 6 h): <0.010 U/mL
- GAPDH Activity ([6]; 1 h): <0.010 U/mL
- GAPDH Activity ([6]; 3 h): <0.010 U/mL
- GAPDH Activity ([6]; 6 h): <0.010 U/mL
